Measured values: the CheMixHub viscosity set
Several values for one entry are separate records, joined by “and”; a condition that tells them apart may be missing. Identical values can stand only once. ± gives the uncertainty stated by the source.

| SMILES | viscosity (298.15 K, 101.33 kPa) | viscosity (303.15 K, 101 kPa) | viscosity (318.15 K, 101 kPa) | viscosity (323.15 K, 101 kPa) | viscosity (293.15 K, 100 kPa) | viscosity (303.15 K, 100 kPa) | viscosity (308.15 K, 101 kPa) | viscosity (313.15 K, 100 kPa) | viscosity (323.15 K, 100 kPa) | viscosity (308.15 K, 101.33 kPa) | also measured |
| --- | --- | --- | --- | --- | --- | --- | --- | --- | --- | --- | --- |
| C=CCO | 1.232 ± 0.031 mPa·s | 1.122 ± 0.01 mPa·s | 0.8419 ± 0.0081 mPa·s | 0.7703 ± 0.0075 mPa·s |  |  |  |  |  |  | viscosity (313.15 K, 101 kPa): 0.9208 ± 0.0088 mPa·s |
| CC(=O)[O-].CC[n+]1ccn(C)c1 |  | 93.62 ± 6.1 mPa·s and 95.11 ± 2.8 mPa·s and 102.4 ± 6.3 mPa·s | 44.15 ± 2.9 mPa·s | 35.74 ± 2.3 mPa·s and 36.27 ± 0.97 mPa·s and 38.97 ± 2.4 mPa·s | 203 ± 11 mPa·s | 89.44 ± 4.3 mPa·s | 71.26 ± 4.6 mPa·s | 53.45 ± 2.5 mPa·s and 61.13 ± 2 mPa·s | 34.58 ± 1.6 mPa·s |  | viscosity (293.15 K, 101 kPa): 197 ± 12 mPa·s; viscosity (313.15 K, 101 kPa): 57.72 ± 2.5 mPa·s and 55.52 ± 3.6 mPa·s and 60.42 ± 3.6 mPa·s |
| CC(=O)[O-].C[NH+]1C=CN=C1 |  |  |  |  |  |  |  |  |  |  | viscosity (298.15 K, 100 kPa): 6.22 ± 0.14 mPa·s |
| CC(C)C#N |  | 0.461 ± 0.008 mPa·s |  |  |  |  | 0.434 ± 0.008 mPa·s and 0.433 ± 0.008 mPa·s |  |  |  |  |
| CCCC(O)CC (configuration not stated) | 4.34 ± 0.04 mPa·s and 4.34 ± 0.035 mPa·s |  |  |  |  |  |  |  |  |  |  |
| CCCCCCCCCCC | 1.084 ± 0.027 mPa·s and 1.084 ± 0.013 mPa·s |  | 0.7937 ± 0.01 mPa·s |  | 1.187 ± 0.048 mPa·s and 1.155 ± 0.014 mPa·s | 1.009 ± 0.041 mPa·s and 0.993 ± 0.021 mPa·s and 0.983 ± 0.012 mPa·s | 0.9373 ± 0.012 mPa·s | 0.869 ± 0.035 mPa·s and 0.861 ± 0.018 mPa·s and 0.849 ± 0.011 mPa·s | 0.761 ± 0.031 mPa·s and 0.756 ± 0.016 mPa·s and 0.742 ± 0.009 mPa·s |  | viscosity (298.15 K, 100 kPa): 1.074 ± 0.023 mPa·s; viscosity (298.15 K, 101 kPa): 1.075 ± 0.013 mPa·s; viscosity (308.15 K, 100 kPa): 0.935 ± 0.038 mPa·s and 0.923 ± 0.02 mPa·s and 0.912 ± 0.011 mPa·s; viscosity (318.15 K, 100 kPa): 0.812 ± 0.033 mPa·s and 0.806 ± 0.017 mPa·s and 0.792 ± 0.01 mPa·s |
| CCOC(=O)CCC(=O)OCC | 2.466 ± 0.03 mPa·s |  |  |  |  |  |  |  |  | 1.973 ± 0.024 mPa·s | viscosity (303.15 K, 101.33 kPa): 2.196 ± 0.027 mPa·s; viscosity (313.15 K, 101.33 kPa): 1.779 ± 0.022 mPa·s; viscosity (318.15 K, 101.33 kPa): 1.615 ± 0.02 mPa·s |
| CCn1cc[n+](C)c1.[Cl][Al-]([Cl])([Cl])[Cl+][Al-]([Cl])([Cl])[Cl] |  |  |  |  | 16.11 ± 0.15 mPa·s | 12.41 ± 0.11 mPa·s |  | 9.79 ± 0.088 mPa·s | 7.943 ± 0.072 mPa·s |  |  |
| CN1CCC[C@H]1c1cccnc1 | 3.894 ± 0.039 mPa·s (2×) and 3.891 ± 0.039 mPa·s |  |  |  |  | 3.6 ± 0.1 mPa·s | 3.156 ± 0.083 mPa·s and 3.156 ± 0.11 mPa·s |  | 2.195 ± 0.046 mPa·s | 3.156 ± 0.032 mPa·s | viscosity (298.15 K, 101 kPa): 3.894 ± 0.1 mPa·s (2×) and 3.894 ± 0.14 mPa·s (2×) and 3.894 ± 0.05 mPa·s; viscosity (318.05 K, 100 kPa): 2.5 ± 0.1 mPa·s; viscosity (323.15 K, 101.33 kPa): 2.038 ± 0.02 mPa·s |
| COCC(C)OCC(C)O (configuration not stated) | 3.691 ± 0.053 mPa·s |  |  |  |  |  |  |  |  | 2.765 ± 0.04 mPa·s | viscosity (318.15 K, 101.33 kPa): 2.147 ± 0.032 mPa·s |
| N#C[C-](C#N)C#N.OCC[n+]1ccccc1 |  | 71.78 ± 7.3 mPa·s | 33.96 ± 3.4 mPa·s | 27.78 ± 2.8 mPa·s |  |  | 54.57 ± 5.5 mPa·s |  |  |  | viscosity (293.15 K, 101 kPa): 136.6 ± 14 mPa·s; viscosity (298.15 K, 101 kPa): 97.48 ± 10 mPa·s; viscosity (313.15 K, 101 kPa): 42.31 ± 4.3 mPa·s |
| NC=O | 3.217 ± 0.018 mPa·s |  |  | 2.01 ± 0.05 mPa·s and 1.905 ± 0.019 mPa·s and 1.966 ± 0.091 mPa·s | 3.734 ± 0.75 mPa·s | 2.964 ± 0.59 mPa·s and 2.874 ± 0.066 mPa·s |  | 2.351 ± 0.054 mPa·s |  | 2.498 ± 0.022 mPa·s and 2.59 ± 0.13 mPa·s | viscosity (293.15 K, 101 kPa): 3.656 ± 0.11 mPa·s and 3.792 ± 0.17 mPa·s; viscosity (298.15 K, 100 kPa): 3.34 ± 0.07 mPa·s; viscosity (298.15 K, 101.3 kPa): 3.393 ± 0.031 mPa·s; viscosity (303.15 K, 101.3 kPa): 2.8 ± 0.1 mPa·s; viscosity (303.15 K, 101.33 kPa): 2.802 ± 0.025 mPa·s and 2.84 ± 0.14 mPa·s; viscosity (308 K, 101 kPa): 2.648 mPa·s; viscosity (308.15 K, 100 kPa): 2.612 ± 0.06 mPa·s; viscosity (308.15 K, 101.3 kPa): 2.5 ± 0.1 mPa·s; viscosity (313 K, 101 kPa): 2.273 ± 0.35 mPa·s; viscosity (313.15 K, 101.3 kPa): 2.2 ± 0.1 mPa·s; viscosity (313.15 K, 101.33 kPa): 2.243 ± 0.02 mPa·s; viscosity (318.15 K, 101.33 kPa): 2.032 ± 0.018 mPa·s; viscosity (323.15 K, 101.3 kPa): 1.6 ± 0.1 mPa·s; viscosity (323.15 K, 101.33 kPa): 1.846 ± 0.017 mPa·s |
